Reference: publication PMC9143577, “Cationic Geminoid Peptide Amphiphiles Inhibit DENV2 Protease, Furin, and Viral Replication” (Molecules, 2022)
Entries after “also recorded” stand apart in the source; their conditions may differ. Where a SMILES comes first, the peptide text is derived from it. The star is where a group is joined. Palmitoyl = CCCCCCCCCCCCCCCC(=O)*; NHhexadecyl = CCCCCCCCCCCCCCCCN*; AMC = Cc1cc(=O)oc2cc(N*)ccc12; Cbz = O=C(OCc1ccccc1)*

Legend:
[1] = Critical micelle concentration by pyrene fluorescence; format: physicochemical; details: pure water
Method: Pyrene was used as a probe to study the changes in its fluorescence, in particular the ratio (I1/I3) of the intensities I1 and I3 […] 373 and 383 nm, respectively. An abrupt change in this ratio with increasing surfactant concentration points to an increase in hydrophobicity of the environment of the probe corresponding to the formation of aggregates. See Supporting Information for details.
Determ ination of the critical m icelle concentrat ion (CMC)
A solution of 5 mg pyrene in methanol (10 mL) was prepared and diluted 20 times. 50 µ L from the dil uted solution was added to geminoid solutions in water to a final volume of 3 mL. The geminoid samples were made from a stock solution of 500 µ M in water in a concentration range from 5 to 200 µ M. The fluorescence spectra were then measured after 1 hour wi th the […] set to 334 nm and emission range 350- 500 nm, excitation slit […], emission slit […] and at 25 °C. The ratio of the intensities was then plotted against the geminoid concentration, and the CMC is calculated from the intersection point of the best fits to the data points below and above it (Fig ure S5).
(§1) Concentration (µM) Concentration (µM)
Concentration (µM)Concentration (µM) Concentration (µM)Concentration (µM)
(1 picture or pasted object on this page, not shown here)

human furin [2] = biological target: T1, human furin (Homo sapiens, UniProt P09958); assay: Furin inhibition assay with MCA substrate (Ac-RVRR-MCA); format: biochemical; details: 0.76 nM furin, pH 7.0, 37 °C, read-out: IC50 (MCA Substrates) Furin
Description: Enzyme expression and purification
DENV2 Protease Preparation. The enzyme was expressed and purified as previously described (ref. S1). […]
subjected to sonication, and centrifuged again. The supernatant was collected and passed […]
Human Furin Preparation. The enzyme was expressed and purified as previously described (ref. S3). Briefly, The PCMV-Fur_S vector containing cDNA […]
Human furin was purifi ed […]
substrate Abz-[…]- EDDnp.
Target sequence in this assay (P09958 108-576 limits assumed): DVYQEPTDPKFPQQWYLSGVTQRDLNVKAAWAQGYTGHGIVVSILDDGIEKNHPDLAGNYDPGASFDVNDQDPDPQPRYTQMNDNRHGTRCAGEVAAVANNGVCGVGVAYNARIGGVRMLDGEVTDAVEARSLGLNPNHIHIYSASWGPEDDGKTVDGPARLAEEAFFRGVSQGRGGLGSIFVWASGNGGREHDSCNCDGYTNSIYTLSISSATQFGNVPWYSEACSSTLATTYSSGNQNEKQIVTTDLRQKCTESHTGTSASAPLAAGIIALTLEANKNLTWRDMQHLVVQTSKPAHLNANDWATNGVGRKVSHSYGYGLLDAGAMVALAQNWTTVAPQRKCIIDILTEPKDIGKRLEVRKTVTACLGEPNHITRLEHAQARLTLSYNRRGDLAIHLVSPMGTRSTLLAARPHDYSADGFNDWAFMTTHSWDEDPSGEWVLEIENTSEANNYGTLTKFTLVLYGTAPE

DENV2 replicon = details: DENV2 HeLa replicon cells treated for 2 days; for inhibition of luciferase activity (DENV2 replicon): 10 µM
Method: (§2) To investigate the effect of geminoids on viral replication, we used HeLa cells containing a DENV2 replicon. Instead of the structural proteins of DENV2, the replicon encodes a luciferase reporter that can be used as a readout for DENV2 protease dependent virus replication. Cell viability was assessed on the same cells using a colourimetric assay based on 3-(4,5-dimethylthiazol-2-yl)-5-(3-carboxymethoxyphenyl)-2H-tetrazolium (MTS) reduction, and by light microscopy. […] The viability of unmodified HeLa cells after treatment with these compounds was also tested in a separate experiment using the Celltiter Blue Viability Assay (Promega, see Supporting Information) in the concentration range of 0.8–50 μM.
(§3) The replicon assay was carried out as described earlier using HeLa cells that contain a stably replicating DENV2 replicon expressing a luciferase reporter gene. The amphiphilic inhibitors were added as concentrated solutions in DMSO; the same amount of DMSO was used as the blank experiment, with the viral inhibitor ribavirin as a positive control. Luciferase activity and cell viability were assessed as described previously.

[3] = test system: wildtype DENV2 (DENV2 NGC); format: cell-based, DENV2 New Guinea strain; details: percentage of infected cells, 2 days after infection; for EC50: LLC-MK2 cells, read-out: DENV Replication in LLC-MK2 Cells EC50
Method: LLC-MK2 (Monkey Rhesus Kidney cells; CCL-7.1) were passaged in assay medium (EMEM (Lonza Cat No: BESP069F) supplemented with 10% heat-inactivated FCS (Lonza), 2% Pen/strep (Gibco), 2% L-Glutamine (Gibco), 2% Hepes (Lonza), and 1% sodium bicarbonate (Lonza)) prior to use in the antiviral assay. Cells were seeded in 96-well plates (10^5 cells/well) in assay medium to be exposed 16–24 h later to compounds and viruses. The plates were incubated at 37 °C/5% CO2 overnight to allow for cell adherence.
Compounds were solubilized in DMSO and evaluated using two-fold serial dilutions (8-points dose-response curves starting at a concentration of 50 µM) in duplicate for the antiviral assays. Compounds were diluted in assay medium at 1× test concentrations. Ribavirin (Sigma Aldrich, Amsterdam, The Netherlands) was evaluated as a positive control compound in the antiviral assays.
DENV2 New Guinea strain was grown in AP-61 insect cells (in-house cell bank) in complete Leibovitz medium containing 1% pen/strep (Gibco), 1% L-glutamin (Gibco), 0.5% Hepes (Lonza), 0.5% sodium bicarbonate (Lonza), and 10% tryptose phosphate for the production of stock virus pools. On the day of cellular infection, an aliquot of virus was removed from the freezer (−80 °C) and allowed to thaw in water in a biological safety cabinet. Virus was diluted into assay medium (10^4 TCID50), and 100 µL of this was added to each well, resulting in a TCID50 of 100. Cells were incubated for 2 h at 37 °C/5% CO2 and washed 3 times with blank assay medium. Directly after washing, 100 µL of the compound dilutions were added to each well.
Each plate contained cell control wells (cells only), virus control wells (cells plus virus), duplicate drug toxicity wells per compound (cells plus drug only), as well as duplicate experimental wells (drug plus cells plus virus).
Virus-infected cells were visualised using a DENV2 immunoperoxidase staining protocol. Two days after infection, cells were inactivated with ethanol 70% for 30 min and washed with PBS. Fixed plates were incubated with PBS containing 0.05% H2O2 for 20 min at 37 °C and washed again 3 times with PBS. Plates were incubated for 1 h with 50 µL monoclonal anti-DENV-2 NS1 antibody (Millipore; diluted 1:500 in EMEM). Samples were washed once with PBS containing 0.05% Tween20 and twice with PBS only. Secondary polyclonal goat anti-mouse IgG HRP (Dako; diluted 1:2000) was added 50 µL per well and incubated for 1 h at 37 °C in the dark. […] Bidest water was added after removal of the substrate solution, and all virus-positive cells per well (marked by brown/red staining) were counted under a microscope. […]

trypsin [4] = assay: Trypsin inhibition assay with Z-FR-MCA; format: biochemical; details: 4 nM trypsin, 11.4 μM Z-FR-MCA; 100 mM Tris.HCl, pH 8.0, 10 mM CaCl2; read-out: IC50 (MCA Substrates) Trypsin
Method: The assay was carried out in 100 mM Tris.HCl, 10 mM CaCl2, pH 8.0, with 4 nM enzyme and 11.4 µM Z-FR-MCA substrate.

HeLa cells (wildtype) = assay: Celltiter Blue Viability Assay on unmodified HeLa cells; details: 24 h, 0.8–50 μM, highest concentration
Method: as §2, §1

[5] = test system: DENV2 HeLa replicon cells; details: 2 days, 0.3 to 10 µM
Method: as §2, §3

[6] = biological target: DENV2 protease (NS2B-NS3 construct CF40-…-NS3) (dengue virus serotype 2)
trypsin [7] = biological target: trypsin
human furin [8] = biological target: T1, human furin
Target sequence in this assay (P09958 27-794): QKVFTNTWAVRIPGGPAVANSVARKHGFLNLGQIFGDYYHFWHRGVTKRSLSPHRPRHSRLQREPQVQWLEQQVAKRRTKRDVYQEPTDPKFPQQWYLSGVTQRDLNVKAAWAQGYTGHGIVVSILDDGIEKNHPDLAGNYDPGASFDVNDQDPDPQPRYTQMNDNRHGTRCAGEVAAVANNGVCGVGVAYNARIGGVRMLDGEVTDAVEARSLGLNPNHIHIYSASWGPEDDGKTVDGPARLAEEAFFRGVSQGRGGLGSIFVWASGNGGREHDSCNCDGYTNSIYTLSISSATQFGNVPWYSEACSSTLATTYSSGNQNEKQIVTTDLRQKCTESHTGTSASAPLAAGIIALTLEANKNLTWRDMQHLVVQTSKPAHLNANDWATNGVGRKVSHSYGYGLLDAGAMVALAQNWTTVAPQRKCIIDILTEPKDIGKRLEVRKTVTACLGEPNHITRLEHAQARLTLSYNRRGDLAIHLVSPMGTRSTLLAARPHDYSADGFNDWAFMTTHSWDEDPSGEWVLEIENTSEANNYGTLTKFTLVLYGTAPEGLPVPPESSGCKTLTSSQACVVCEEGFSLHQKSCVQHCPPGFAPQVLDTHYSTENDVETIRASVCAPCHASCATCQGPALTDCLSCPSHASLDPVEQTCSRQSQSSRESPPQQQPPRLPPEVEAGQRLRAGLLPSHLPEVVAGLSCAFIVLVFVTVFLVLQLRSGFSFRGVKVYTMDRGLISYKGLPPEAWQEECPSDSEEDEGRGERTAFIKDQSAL

DENV2 protease = DENV2 protease (Dengue virus type 2, UniProt P14340); design: the vector with CF40 fused to NS3pro was used; hexahistidine (N); made in house; host or cells: E. coli strain SG13009; method as in PMID 17184724; details: ref [23], cited from earlier work
Chain of DENV2 protease (P14340 1476-1653): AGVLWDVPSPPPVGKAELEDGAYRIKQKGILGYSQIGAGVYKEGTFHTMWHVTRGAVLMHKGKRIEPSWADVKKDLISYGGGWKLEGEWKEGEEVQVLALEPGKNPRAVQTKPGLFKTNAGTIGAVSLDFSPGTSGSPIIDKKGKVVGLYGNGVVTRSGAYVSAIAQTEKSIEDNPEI
Chain of DENV2 protease (P14340 1398-1437): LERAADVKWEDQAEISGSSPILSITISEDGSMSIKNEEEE

Molecule: CCCCCCCCCCCCCCCCNC(=O)[C@H](CCCCN)NC(=O)[C@H](C)NC(=O)[C@H](CCCCN)NC(=O)CCCCCCCCCCCCCCC [Compound 2a, C15H31C(O)-Lys-(Ala)-Lys-NHC16H33.2TFA]
- CMC (Critical Micelle Concentration) [1]: 48 to 58 µM
- IC50 (human furin [2]): 3570 ± 180 nM
- reduction of luciferase activity (DENV2 replicon; 3 µM): 39%
- inhibition of luciferase activity (DENV2 replicon) (DENV2 replicon): 62%
- EC50 [3]: 4.1 ± 1.5 µM
- IC50 (trypsin [4]): 17.2 ± 0.66 µM

Molecule: CCCCCCCCCCCCCCCCNC(=O)[C@H](CCCCN)NC(=O)[C@H](C)NC(=O)[C@H](C)NC(=O)[C@H](CCCCN)NC(=O)CCCCCCCCCCCCCCC [Compound 2b, C15H31C(O)-Lys-(Ala)2-Lys-NHC16H33.2TFA] (Palmitoyl-KAAK-NHhexadecyl)
- CMC (Critical Micelle Concentration) [1]: 41 µM
- IC50 (human furin [2]): 2140 ± 100 nM
- inhibition of luciferase activity (DENV2 replicon) (DENV2 replicon): 47%
- EC50 [3]: 3.1 ± 0.7 µM
- IC50 (trypsin [4]): 20.9 ± 0.34 µM

Molecule: CCCCCCCCCCCCCCCCNC(=O)[C@H](CCCCN)NC(=O)CNC(=O)[C@H](CCCCN)NC(=O)CCCCCCCCCCCCCCC [Compound 3a]
- CMC (Critical Micelle Concentration) [1]: 55 to 72 µM
- inhibition of luciferase activity (DENV2 replicon) (DENV2 replicon): 38%
- EC50 [3]: 12.7 ± 1.1 µM
- IC50 (trypsin [4]): 41 ± 2 µM

Molecule: CCCCCCCCCCCCCCCCNC(=O)[C@H](CCCCN)NC(=O)CNC(=O)CNC(=O)[C@H](CCCCN)NC(=O)CCCCCCCCCCCCCCC [Compound 3b] (Palmitoyl-KGGK-NHhexadecyl)
- toxicity in Celltiter Blue Viability Assay (HeLa cells (wildtype)): slight toxicity; also recorded: slight toxicities
- CMC (Critical Micelle Concentration) [1]: 30 µM
- cell viability (MTS assay), relative to DMSO control [5]: considerable cytotoxicity
- DENV Replication in LLC-MK2 Cells EC50 [3]: not active

Molecule: C15H31C(O)-Lys-(Ala)-Lys-NHC16H33 (C16-KAK-C16) (peptide)
- IC50 of inhibition of DENV2 protease activity (20 nM enzyme, substrate Z-RR-MCA, 50 mM Tris.HCl pH 9.0, 20% glycerol, 37 °C) [6]: 0.66 µM
- IC50 of inhibition of DENV2 protease activity (50 µM Tyr(3-NO2) substrate, 50 mM Tris.HCl pH 9.0, 10% ethylene glycol, 0.0016% Brij 58) [6]: 2.3 µM
- IC50 of inhibition of trypsin activity (4 nM trypsin, 11.4 µM Z-FR-MCA, 100 mM Tris.HCl pH 8.0, 10 mM CaCl2) (trypsin [7]): 17.2 µM
- IC50 of inhibition of furin activity (0.76 nM furin, substrate Ac-RVRR-MCA, 10 mM MES pH 7.0, 37 °C) (human furin [8]): 3.57 µM

Molecule: C15H31C(O)-Lys-(Gly)-Lys-NHC16H33 (C16-KGK-C16) (peptide)
- IC50 of inhibition of DENV2 protease activity (20 nM enzyme, substrate Z-RR-MCA, 50 mM Tris.HCl pH 9.0, 20% glycerol, 37 °C) [6]: 1.94 µM
- IC50 of inhibition of DENV2 protease activity (50 µM Tyr(3-NO2) substrate, 50 mM Tris.HCl pH 9.0, 10% ethylene glycol, 0.0016% Brij 58) [6]: 2.1 µM
- IC50 of inhibition of trypsin activity (4 nM trypsin, 11.4 µM Z-FR-MCA, 100 mM Tris.HCl pH 8.0, 10 mM CaCl2) (trypsin [7]): 41 µM

Molecule: C15H31C(O)-Lys-Lys-NHC16H33 (C16-KK-C16) (peptide)
- IC50 of inhibition of DENV2 protease activity (20 nM enzyme, substrate Z-RR-MCA, 50 mM Tris.HCl pH 9.0, 20% glycerol, 37 °C) [6]: 4.25 µM
- IC50 of inhibition of trypsin activity (4 nM trypsin, 11.4 µM Z-FR-MCA, 100 mM Tris.HCl pH 8.0, 10 mM CaCl2) (trypsin [7]): 85.7 µM

Molecule: Cbz-Arg-Arg-{AMC}
- kcat for hydrolysis of the substrate (DENV2 protease): 0.11 s⁻¹
- Km (DENV2 protease; read-out: KM for hydrolysis of the substrate): 247 µM

B1: C15H31C(O)-Lys-(Gly)2-Lys-NHC16H33 (C16-KG2K-C16) (peptide)
peptide: Palmitoyl-KGGK-NHhexadecyl
SMILES: CCCCCCCCCCCCCCCCNC(=O)[C@H](CCCCN)NC(=O)CNC(=O)CNC(=O)[C@H](CCCCN)NC(=O)CCCCCCCCCCCCCCC
- IC50 of inhibition of DENV2 protease activity (20 nM enzyme, substrate Z-RR-MCA, 50 mM Tris.HCl pH 9.0, 20% glycerol, 37 °C) [6]: 3.69 µM
- IC50 of inhibition of DENV2 protease activity (50 µM Tyr(3-NO2) substrate, 50 mM Tris.HCl pH 9.0, 10% ethylene glycol, 0.0016% Brij 58) [6]: 10.2 µM

B2: C15H31C(O)-Lys-(Ala)2-Lys-NHC16H33 (C16-KA2K-C16) (peptide)
peptide: Palmitoyl-KAAK-NHhexadecyl
SMILES: CCCCCCCCCCCCCCCCNC(=O)[C@H](CCCCN)NC(=O)[C@H](C)NC(=O)[C@H](C)NC(=O)[C@H](CCCCN)NC(=O)CCCCCCCCCCCCCCC
- IC50 of inhibition of DENV2 protease activity (20 nM enzyme, substrate Z-RR-MCA, 50 mM Tris.HCl pH 9.0, 20% glycerol, 37 °C) [6]: 0.8 µM
- IC50 of inhibition of DENV2 protease activity (50 µM Tyr(3-NO2) substrate, 50 mM Tris.HCl pH 9.0, 10% ethylene glycol, 0.0016% Brij 58) [6]: 1.4 µM
- IC50 of inhibition of trypsin activity (4 nM trypsin, 11.4 µM Z-FR-MCA, 100 mM Tris.HCl pH 8.0, 10 mM CaCl2) (trypsin [7]): 20.9 µM
- IC50 of inhibition of furin activity (0.76 nM furin, substrate Ac-RVRR-MCA, 10 mM MES pH 7.0, 37 °C) (human furin [8]): 2.14 µM
